{"source": "paper PMC3552057", "about": "(Biochemistry, 2013)", "molecular_target": "T1, HpxO (Klebsiella pneumoniae, UniProt A6T923)", "T1 sequence (A6T923 1-384)": "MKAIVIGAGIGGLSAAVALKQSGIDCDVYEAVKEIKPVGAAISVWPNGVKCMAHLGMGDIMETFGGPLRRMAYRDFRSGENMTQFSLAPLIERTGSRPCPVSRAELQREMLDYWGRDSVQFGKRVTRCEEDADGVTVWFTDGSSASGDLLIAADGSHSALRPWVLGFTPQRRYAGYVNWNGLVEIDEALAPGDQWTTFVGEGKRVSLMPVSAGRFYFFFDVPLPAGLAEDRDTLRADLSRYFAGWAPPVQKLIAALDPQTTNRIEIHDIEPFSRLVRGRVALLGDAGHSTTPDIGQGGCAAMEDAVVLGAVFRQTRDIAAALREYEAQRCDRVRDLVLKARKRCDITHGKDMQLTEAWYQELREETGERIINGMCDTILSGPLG", "assay": "X-ray crystal structure, […] Å", "assay_type": "binding", "conditions": "SeMet HpxO without uric acid; FAD in the in conformation", "data": [{"smiles": "Cc1cc2nc3c(=O)[nH]c(=O)nc-3n(C[C@H](O)[C@H](O)[C@H](O)COP(=O)(O)OP(=O)(O)OC[C@H]3O[C@@H](n4cnc5c(N)ncnc54)[C@H](O)[C@@H]3O)c2cc1C", "note": "[FAD]", "values": [{"measurement": "X-ray crystal structure, 2.2 Å", "result": "One FAD molecule binds to the HpxO monomer in an extended conformation"}]}]}
